Measured values: PubChem BioAssay (NCI)
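1) Cells in 96-well plates. 2) Compound, 48 h, 5 concentrations. 3) Linear interpolation between surrounding doses. 4) Unreached endpoint = highest concentration. GI50 is the concentration that inhibits growth by half. TGI denotes the concentration required for complete inhibition of growth.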

Experiments:
Assay in all cases: DTP human tumour cell line panel, 48 h
M14 melanoma = test system: M14 melanoma
KM12 colon = test system: KM12 colon
A498 renal = test system: A498 renal
NCI-H226 lung = test system: NCI-H226 lung
SF-295 CNS = test system: SF-295 CNS
HOP-62 NSCLC = test system: HOP-62 NSCLC
HCC-2998 colon = test system: HCC-2998 colon
EKVX NSCLC = test system: EKVX NSCLC
NCI-H23 lung = test system: NCI-H23 lung
SN12C renal = test system: SN12C renal
HL-60(TB) leukemia = test system: HL-60(TB) leukemia
SK-MEL-5 melanoma = test system: SK-MEL-5 melanoma
SF-539 CNS = test system: SF-539 CNS
A549 NSCLC = test system: A549 NSCLC
DU-145 prostate = test system: DU-145 prostate
PC-3 prostate = test system: PC-3 prostate
HCT-15 colon = test system: HCT-15 colon
MDA-MB-435 = test system: MDA-MB-435
SNB-75 CNS = test system: SNB-75 CNS
SW-620 colon = test system: SW-620 colon
SK-MEL-2 melanoma = test system: SK-MEL-2 melanoma
SF-268 CNS = test system: SF-268 CNS
T-47D breast = test system: T-47D breast
HOP-92 NSCLC = test system: HOP-92 NSCLC
SNB-19 CNS = test system: SNB-19 CNS
HT29 colon = test system: HT29 colon
SK-MEL-28 melanoma = test system: SK-MEL-28 melanoma
RPMI-8226 leukemia = test system: RPMI-8226 leukemia
MALME-3M melanoma = test system: MALME-3M melanoma
UACC-257 melanoma = test system: UACC-257 melanoma
CCRF-CEM leukemia = test system: CCRF-CEM leukemia
OVCAR-8 ovarian = test system: OVCAR-8 ovarian
OVCAR-5 ovarian = test system: OVCAR-5 ovarian
IGROV1 ovarian = test system: IGROV1 ovarian
786-0 renal = test system: 786-0 renal
CAKI-1 renal = test system: CAKI-1 renal
BT-549 breast = test system: BT-549 breast
TK-10 renal = test system: TK-10 renal
NCI/ADR-RES ovarian = test system: NCI/ADR-RES ovarian
NCI-H460 lung = test system: NCI-H460 lung
UACC-62 melanoma = test system: UACC-62 melanoma
HCT-116 colon = test system: HCT-116 colon
COLO 205 colon = test system: COLO 205 colon
OVCAR-3 ovarian = test system: OVCAR-3 ovarian
LOX IMVI melanoma = test system: LOX IMVI melanoma
RXF 393 renal = test system: RXF 393 renal
U251 CNS = test system: U251 CNS
MCF7 breast = test system: MCF7 breast
HS 578T breast = test system: HS 578T breast
ACHN renal = test system: ACHN renal
SR leukemia = test system: SR leukemia
UO-31 renal = test system: UO-31 renal
MOLT-4 leukemia = test system: MOLT-4 leukemia
K-562 leukemia = test system: K-562 leukemia
OVCAR-4 ovarian = test system: OVCAR-4 ovarian
SK-OV-3 ovarian = test system: SK-OV-3 ovarian
MDA-MB-231 breast = test system: MDA-MB-231 breast
NCI-H522 lung = test system: NCI-H522 lung

SMILES: Cn1cc(-c2nc(N)nnc2-c2c[nH]c3ccccc23)c2cc(Br)ccc21
- GI50 (M14 melanoma): 0.768 µM
- TGI (M14 melanoma): 8.45 µM
- GI50 (KM12 colon): 0.591 µM
- TGI (KM12 colon): 11.9 µM
- GI50 (A498 renal): 1.19 µM
- TGI (A498 renal): 5.7 µM
- GI50 (NCI-H226 lung): 2.39 µM
- TGI (NCI-H226 lung): 15.9 µM
- GI50 (SF-295 CNS): 0.922 µM
- TGI (SF-295 CNS): 11.4 µM
- GI50 (HOP-62 NSCLC): 2.52 µM
- TGI (HOP-62 NSCLC): 19.9 µM
- GI50 (HCC-2998 colon): 2.7 µM
- TGI (HCC-2998 colon): 13.7 µM
- GI50 (EKVX NSCLC): 2.62 µM
- TGI (EKVX NSCLC): 23.4 µM
- GI50 (NCI-H23 lung): 2.21 µM
- TGI (NCI-H23 lung): 17.2 µM
- GI50 (SN12C renal): 5.17 µM
- TGI (SN12C renal): 47.9 µM
- GI50 (HL-60(TB) leukemia): 0.451 µM
- TGI (HL-60(TB) leukemia): 7.69 µM
- GI50 (SK-MEL-5 melanoma): 1.58 µM
- TGI (SK-MEL-5 melanoma): 9.96 µM
- GI50 (SF-539 CNS): 2.17 µM
- TGI (SF-539 CNS): 6.88 µM
- GI50 (A549 NSCLC): 1.55 µM
- TGI (A549 NSCLC): 39.7 µM
- GI50 (DU-145 prostate): 3.26 µM
- TGI (DU-145 prostate): 14.8 µM
- GI50 (PC-3 prostate): 2.12 µM
- TGI (PC-3 prostate): 64 µM
- GI50 (HCT-15 colon): 0.552 µM
- TGI (HCT-15 colon): 16.4 µM
- GI50 (MDA-MB-435): 0.312 µM
- TGI (MDA-MB-435): 11.8 µM
- GI50 (SNB-75 CNS): 0.46 µM
- TGI (SNB-75 CNS): 4.54 µM
- GI50 (SW-620 colon): 0.67 µM
- TGI (SW-620 colon): 15.9 µM
- GI50 (SK-MEL-2 melanoma): 1.9 µM
- TGI (SK-MEL-2 melanoma): 13.6 µM
- GI50 (SF-268 CNS): 2.51 µM
- TGI (SF-268 CNS): 18.6 µM
- GI50 (T-47D breast): 0.783 µM
- TGI (T-47D breast): 24.4 µM
- GI50 (HOP-92 NSCLC): 2.62 µM
- TGI (HOP-92 NSCLC): 22.4 µM
- GI50 (SNB-19 CNS): 2.05 µM
- TGI (SNB-19 CNS): 22.7 µM
- GI50 (HT29 colon): 0.483 µM
- TGI (HT29 colon): 5.38 µM
- GI50 (SK-MEL-28 melanoma): 6.98 µM
- TGI (SK-MEL-28 melanoma): 22.5 µM
- GI50 (RPMI-8226 leukemia): 2.35 µM
- TGI (RPMI-8226 leukemia): 46.2 µM
- GI50 (MALME-3M melanoma): 6.12 µM
- TGI (MALME-3M melanoma): 32.2 µM
- GI50 (UACC-257 melanoma): 7.26 µM
- TGI (UACC-257 melanoma): 22.4 µM
- GI50 (CCRF-CEM leukemia): 2.21 µM
- TGI (CCRF-CEM leukemia): 13.5 µM
- GI50 (OVCAR-8 ovarian): 3.62 µM
- TGI (OVCAR-8 ovarian): 69.5 µM
- GI50 (OVCAR-5 ovarian): 5.9 µM
- TGI (OVCAR-5 ovarian): 25.5 µM
- GI50 (IGROV1 ovarian): 0.9 µM
- TGI (IGROV1 ovarian): 24.2 µM
- GI50 (786-0 renal): 2.65 µM
- TGI (786-0 renal): 17.6 µM
- GI50 (CAKI-1 renal): 0.536 µM
- TGI (CAKI-1 renal): 13.6 µM
- GI50 (BT-549 breast): 1.53 µM
- TGI (BT-549 breast): 14.5 µM
- GI50 (TK-10 renal): 6.01 µM
- TGI (TK-10 renal): 34.3 µM
- GI50 (NCI/ADR-RES ovarian): 1.67 µM
- TGI (NCI/ADR-RES ovarian): 18.6 µM
- GI50 (NCI-H460 lung): 0.551 µM
- TGI (NCI-H460 lung): 12.2 µM
- GI50 (UACC-62 melanoma): 0.988 µM
- TGI (UACC-62 melanoma): 18.9 µM
- GI50 (HCT-116 colon): 0.518 µM
- TGI (HCT-116 colon): 11.9 µM
- GI50 (COLO 205 colon): 0.877 µM
- TGI (COLO 205 colon): 7.13 µM
- GI50 (OVCAR-3 ovarian): 0.507 µM
- TGI (OVCAR-3 ovarian): 4.94 µM
- GI50 (LOX IMVI melanoma): 1.37 µM
- TGI (LOX IMVI melanoma): 27.4 µM
- GI50 (RXF 393 renal): 1.17 µM
- TGI (RXF 393 renal): 4.4 µM
- GI50 (U251 CNS): 2.26 µM
- TGI (U251 CNS): 15.2 µM
- GI50 (MCF7 breast): 0.48 µM
- TGI (MCF7 breast): 16.4 µM
- GI50 (HS 578T breast): 1.89 µM
- TGI (HS 578T breast): 9.3 µM
- GI50 (ACHN renal): 3.57 µM
- TGI (ACHN renal): 20 µM
- GI50 (SR leukemia): 0.312 µM
- TGI (SR leukemia): 2.43 µM
- GI50 (UO-31 renal): 1.99 µM
- TGI (UO-31 renal): 20.8 µM
- GI50 (MOLT-4 leukemia): 0.684 µM
- TGI (MOLT-4 leukemia): 4.05 µM
- GI50 (K-562 leukemia): 0.393 µM
- TGI (K-562 leukemia): 13.2 µM
- GI50 (OVCAR-4 ovarian): 3.72 µM
- TGI (OVCAR-4 ovarian): 21.8 µM
- GI50 (SK-OV-3 ovarian): 3.02 µM
- TGI (SK-OV-3 ovarian): 18.7 µM
- GI50 (MDA-MB-231 breast): 4.49 µM
- TGI (MDA-MB-231 breast): 66.1 µM
- GI50 (NCI-H522 lung): 0.646 µM
- TGI (NCI-H522 lung): 8.03 µM
